According to patent publication US20230265151A1, “GIP/GLP1 CO-AGONIST COMPOUNDS” (priority 2020, published 2023):
Read-outs that look alike come from different tables or passages of the source. *1 amine or outer side, *2 acyl side, *3 side chain or, on linkers, in order; H or OH if unused. Where a SMILES comes first, the peptide text is derived from it. Side-chain parts run from the residue outwards. [ ]: non-standard residue; d: D form. The star is where a group is joined. Decanoyl(10-(4-HOOC-PhO)) = O=C(O)c1ccc(OCCCCCCCCCC(=O)*)cc1; αMePhe(2-F) = C[C@](N)(Cc1ccccc1F)C(=O)O; γGlu = O=C(O)[C@H](CCC(=O)[*:2])N[*:1]; αMeY = C[C@](N)(Cc1ccc(O)cc1)C(=O)O; αMeL = CC(C)C[C@](C)(N)C(=O)O; Orn = NCCC[C@H](N)C(=O)O; AEEA = NCCOCCOCC(=O)O; Aib = CC(C)(N)C(=O)O

How the values were obtained:
Format in all cases: cell-based
[1] = molecular target: T1, hGCGR (Homo sapiens, UniProt P47871); assay: Functional cAMP formation (HTRF) in HEK-293 clonal cells expressing hGCGR, 0.1% bovine casein, without or with 1.0% human serum albumin; conditions: hGCGR EC50, nM (SEM, n), geometric mean
T1 construct: expressed in transfected cells
Procedure, shortened: (§1)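 Readings of the HTRF 665/620 nm ratio, which falls as cAMP rises, were converted to nM cAMP using a standard curve after 30 min peptide exposure at 37° C.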

[2] = molecular target: hGLP-1R (Homo sapiens, UniProt P43220); assay: Functional cAMP formation (HTRF) in HEK-293 clonal cells expressing hGLP-1R, 0.1% bovine casein, without or with 1.0% human serum albumin; parameters: expressed in transfected cells; conditions: for EC50: hGLP-1R EC50, nM (SEM, n), geometric mean
Procedure, shortened: as §1

[3] = molecular target: T2, hGIPR (Homo sapiens, UniProt P48546); assay: Functional cAMP formation (HTRF) in HEK-293 clonal cells expressing hGIPR, 0.1% bovine casein, without or with 1.0% human serum albumin; conditions: for Emax: HEK293, read-out: hGIPR Emax, % ± SEM, 0.1% bovine casein and 1.0% human serum albumin, 37° C., percent of maximal response to GIP(1-42)NH2; for EC50: hGIPR EC50, nM (SEM, n), cAMP, incubated at 37° C., 0.1% bovine casein (no human serum albumin), geometric mean
T2 construct: expressed in transfected cells
T2 sequence (P48546 22-466): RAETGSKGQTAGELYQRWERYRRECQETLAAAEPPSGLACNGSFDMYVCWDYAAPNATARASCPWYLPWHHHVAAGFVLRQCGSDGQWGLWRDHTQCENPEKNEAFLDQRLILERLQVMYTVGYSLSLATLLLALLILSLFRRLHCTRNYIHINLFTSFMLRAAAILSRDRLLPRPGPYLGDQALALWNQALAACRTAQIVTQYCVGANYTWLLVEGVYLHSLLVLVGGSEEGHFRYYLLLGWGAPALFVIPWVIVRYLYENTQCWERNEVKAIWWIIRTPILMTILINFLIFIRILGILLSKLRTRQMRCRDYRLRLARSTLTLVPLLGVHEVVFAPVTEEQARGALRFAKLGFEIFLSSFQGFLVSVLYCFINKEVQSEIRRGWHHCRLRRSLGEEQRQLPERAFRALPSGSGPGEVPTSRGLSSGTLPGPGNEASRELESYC
Procedure, shortened: as §1

[4] = 0.1% bovine casein and 1.0% human serum albumin, 37° C.
[5] = cAMP, incubated at 37° C., 0.1% bovine casein (no human serum albumin)
[6] = HEK293, read-out: hGLP-1R Emax, % ± SEM, 0.1% bovine casein and 1.0% human serum albumin, 37° C., percent of maximal response to GLP-1(7-36)NH2
[7] = HEK293, read-out: hGLP-1R Emax, % ± SEM, percent of maximal response to GLP-1(7-36)NH2, 37° C., 0.1% bovine casein, arithmetic mean

Sequence of hGLP-1R (P43220 24-463): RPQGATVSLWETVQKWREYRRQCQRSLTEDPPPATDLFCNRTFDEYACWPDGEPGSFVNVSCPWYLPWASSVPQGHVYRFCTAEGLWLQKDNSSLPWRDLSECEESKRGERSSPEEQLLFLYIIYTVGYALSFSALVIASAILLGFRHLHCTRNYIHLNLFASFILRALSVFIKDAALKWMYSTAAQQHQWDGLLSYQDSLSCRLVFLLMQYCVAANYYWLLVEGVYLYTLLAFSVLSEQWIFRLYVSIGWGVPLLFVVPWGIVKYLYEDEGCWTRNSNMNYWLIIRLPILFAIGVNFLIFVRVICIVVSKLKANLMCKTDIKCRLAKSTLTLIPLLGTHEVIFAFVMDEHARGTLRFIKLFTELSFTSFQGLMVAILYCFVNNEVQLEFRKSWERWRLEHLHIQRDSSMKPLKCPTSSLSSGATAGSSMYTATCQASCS
T1 sequence (P47871 26-477): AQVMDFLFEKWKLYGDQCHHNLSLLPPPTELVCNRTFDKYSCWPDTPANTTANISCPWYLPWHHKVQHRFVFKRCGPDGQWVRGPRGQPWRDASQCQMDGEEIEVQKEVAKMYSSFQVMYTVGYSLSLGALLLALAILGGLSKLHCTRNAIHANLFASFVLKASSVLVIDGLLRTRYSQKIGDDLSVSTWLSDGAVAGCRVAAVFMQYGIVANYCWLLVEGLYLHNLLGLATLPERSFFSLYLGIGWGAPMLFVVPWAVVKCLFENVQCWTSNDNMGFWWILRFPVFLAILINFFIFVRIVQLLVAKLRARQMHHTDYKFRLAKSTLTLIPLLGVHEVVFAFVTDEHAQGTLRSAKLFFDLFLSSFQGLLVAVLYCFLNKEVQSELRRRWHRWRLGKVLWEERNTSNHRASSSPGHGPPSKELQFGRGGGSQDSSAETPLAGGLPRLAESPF

SMILES | EC50 [1, 4] | EC50 [1, 5] | Emax [2, 6] | Emax [2, 7] | EC50 [2, 4] | EC50 [2, 5] | Emax [3] | EC50 [3]
CC[C@H](C)[C@H](NC(=O)[C@H](CC(C)C)NC(=O)[C@](C)(Cc1ccc(O)cc1)NC(=O)[C@@H](CCC(=O)O)NC(=O)[C@@H](NC(=O)[C@H](Cc1ccccc1)NC(=O)[C@H](CCCCNC(=O)COCCOCCNC(=O)COCCOCCNC(=O)CC[C@H](NC(=O)CCCCCCCCCOc1ccc(C(=O)O)cc1)C(=O)O)NC(=O)C(C)(C)NC(=O)[C@H](CCC(N)=O)NC(=O)[C@H](C)NC(=O)[C@H](CCCCNC(=O)COCCOCCNC(=O)COCCOCCNC(=O)CC[C@H](NC(=O)CCCCCCCCCOc1ccc(C(=O)O)cc1)C(=O)O)NC(=O)[C@H](CCCN)NC(=O)[C@H](CC(=O)O)NC(=O)[C@H](CC(C)C)NC(=O)[C@](C)(CC(C)C)NC(=O)[C@@H](NC(=O)C(C)(C)NC(=O)[C@H](Cc1ccc(O)cc1)NC(=O)[C@H](CC(=O)O)NC(=O)[C@H](CO)NC(=O)[C@@H](NC(=O)[C@](C)(Cc1ccccc1F)NC(=O)[C@@H](NC(=O)CNC(=O)[C@H](CCC(=O)O)NC(=O)C(C)(C)NC(=O)[C@@H](N)Cc1ccc(O)cc1)[C@@H](C)O)[C@@H](C)O)[C@@H](C)CC)[C@@H](C)CC)C(=O)N[C@@H](CCC(=O)O)C(=O)NCC(=O)NCC(=O)N1CCC[C@H]1C(=O)N[C@@H](CO)C(=O)N[C@@H](CO)C(=O)NCC(=O)N[C@@H](C)C(=O)N1CCC[C@H]1C(=O)N1CCC[C@H]1C(=O)N1CCC[C@H]1C(=O)N[C@@H](CO)C(N)=O [Example 236] | > 9950 nM | > 9950 nM | 125% | 96.5% | 32.6 nM | 0.336 nM | 80.5% | 0.0154 nM
CC[C@H](C)[C@H](NC(=O)[C@H](CC(C)C)NC(=O)[C@](C)(Cc1ccc(O)cc1)NC(=O)[C@@H](CCC(=O)O)NC(=O)[C@@H](NC(=O)[C@H](Cc1ccccc1)NC(=O)[C@H](CCC(=O)O)NC(=O)C(C)(C)NC(=O)[C@H](CCC(N)=O)NC(=O)[C@H](C)NC(=O)[C@H](CCCCNC(=O)COCCOCCNC(=O)COCCOCCNC(=O)CC[C@H](NC(=O)CCCCCCCCCOc1ccc(C(=O)O)cc1)C(=O)O)NC(=O)[C@H](CCCN)NC(=O)[C@H](CC(=O)O)NC(=O)[C@H](CC(C)C)NC(=O)[C@](C)(CC(C)C)NC(=O)[C@@H](NC(=O)C(C)(C)NC(=O)[C@H](Cc1ccc(O)cc1)NC(=O)[C@H](CC(=O)O)NC(=O)[C@H](CO)NC(=O)[C@@H](NC(=O)[C@](C)(Cc1ccccc1F)NC(=O)[C@@H](NC(=O)CNC(=O)[C@H](CCC(=O)O)NC(=O)C(C)(C)NC(=O)[C@@H](N)Cc1ccc(O)cc1)[C@@H](C)O)[C@@H](C)O)[C@@H](C)CC)[C@@H](C)CC)C(=O)N[C@@H](CCCCNC(=O)COCCOCCNC(=O)COCCOCCNC(=O)CC[C@H](NC(=O)CCCCCCCCCOc1ccc(C(=O)O)cc1)C(=O)O)C(=O)NCC(=O)NCC(=O)N1CCC[C@H]1C(=O)N[C@@H](CO)C(=O)N[C@@H](CO)C(=O)NCC(=O)N[C@@H](C)C(=O)N1CCC[C@H]1C(=O)N1CCC[C@H]1C(=O)N1CCC[C@H]1C(=O)N[C@@H](CO)C(N)=O [Example 237] | > 9950 nM | > 9950 nM | 113% |  |  | 0.633 nM | 93.1% | 0.0186 nM
CC[C@H](C)[C@H](NC(=O)[C@H](CC(C)C)NC(=O)[C@](C)(Cc1ccc(O)cc1)NC(=O)[C@@H](CCC(=O)O)NC(=O)[C@@H](NC(=O)[C@H](Cc1ccccc1)NC(=O)[C@H](CCC(=O)O)NC(=O)C(C)(C)NC(=O)[C@H](CCC(N)=O)NC(=O)[C@H](C)NC(=O)[C@H](CCCCNC(=O)COCCOCCNC(=O)COCCOCCNC(=O)CC[C@H](NC(=O)CCCCCCCCCOc1ccc(C(=O)O)cc1)C(=O)O)NC(=O)[C@H](CCCN)NC(=O)[C@H](CC(=O)O)NC(=O)[C@H](CC(C)C)NC(=O)[C@](C)(CC(C)C)NC(=O)[C@@H](NC(=O)C(C)(C)NC(=O)[C@H](Cc1ccc(O)cc1)NC(=O)[C@H](CC(=O)O)NC(=O)[C@H](CO)NC(=O)[C@@H](NC(=O)[C@](C)(Cc1ccccc1F)NC(=O)[C@@H](NC(=O)CNC(=O)[C@H](CCC(=O)O)NC(=O)C(C)(C)NC(=O)[C@@H](N)Cc1ccc(O)cc1)[C@@H](C)O)[C@@H](C)O)[C@@H](C)CC)[C@@H](C)CC)C(=O)N[C@@H](CCC(=O)O)C(=O)NCC(=O)NCC(=O)N1CCC[C@H]1C(=O)N[C@@H](CO)C(=O)N[C@@H](CO)C(=O)NCC(=O)N[C@@H](C)C(=O)N1CCC[C@H]1C(=O)N1CCC[C@H]1C(=O)N1CCC[C@H]1C(=O)N[C@@H](CO)C(=O)N[C@@H](CCCCNC(=O)COCCOCCNC(=O)COCCOCCNC(=O)CC[C@H](NC(=O)CCCCCCCCCOc1ccc(C(=O)O)cc1)C(=O)O)C(N)=O [Example 238] | > 9950 nM | > 9950 nM |  |  | 27.2 nM | 1.03 nM | 90.5% | 0.0214 nM
CC[C@H](C)[C@H](NC(=O)[C@H](CCCN)NC(=O)[C@H](CC(=O)O)NC(=O)[C@H](CC(C)C)NC(=O)[C@](C)(CC(C)C)NC(=O)[C@@H](NC(=O)C(C)(C)NC(=O)[C@H](Cc1ccc(O)cc1)NC(=O)[C@H](CC(=O)O)NC(=O)[C@H](CO)NC(=O)[C@@H](NC(=O)[C@](C)(Cc1ccccc1F)NC(=O)[C@@H](NC(=O)CNC(=O)[C@H](CCC(=O)O)NC(=O)C(C)(C)NC(=O)[C@@H](N)Cc1ccc(O)cc1)[C@@H](C)O)[C@@H](C)O)[C@@H](C)CC)C(=O)N[C@@H](C)C(=O)N[C@@H](CCC(N)=O)C(=O)NC(C)(C)C(=O)N[C@@H](CCC(=O)O)C(=O)N[C@@H](Cc1ccccc1)C(=O)N[C@H](C(=O)N[C@@H](CCCCNC(=O)COCCOCCNC(=O)COCCOCCNC(=O)CC[C@H](NC(=O)CCCCCCCCCOc1ccc(C(=O)O)cc1)C(=O)O)C(=O)N[C@@](C)(Cc1ccc(O)cc1)C(=O)N[C@@H](CC(C)C)C(=O)N[C@H](C(=O)N[C@@H](CCCCNC(=O)COCCOCCNC(=O)COCCOCCNC(=O)CC[C@H](NC(=O)CCCCCCCCCOc1ccc(C(=O)O)cc1)C(=O)O)C(=O)NCC(=O)NCC(=O)N1CCC[C@H]1C(=O)N[C@@H](CO)C(=O)N[C@@H](CO)C(=O)NCC(=O)N[C@@H](C)C(=O)N1CCC[C@H]1C(=O)N1CCC[C@H]1C(=O)N1CCC[C@H]1C(=O)N[C@@H](CO)C(N)=O)[C@@H](C)CC)[C@@H](C)CC [Example 239] | > 9950 nM | > 9950 nM | 109% |  |  | 0.546 nM | 89.1% | 0.0328 nM
CC[C@H](C)[C@H](NC(=O)[C@H](CCCN)NC(=O)[C@H](CC(=O)O)NC(=O)[C@H](CC(C)C)NC(=O)[C@](C)(CC(C)C)NC(=O)[C@@H](NC(=O)C(C)(C)NC(=O)[C@H](Cc1ccc(O)cc1)NC(=O)[C@H](CC(=O)O)NC(=O)[C@H](CO)NC(=O)[C@@H](NC(=O)[C@](C)(Cc1ccccc1F)NC(=O)[C@@H](NC(=O)CNC(=O)[C@H](CCC(=O)O)NC(=O)C(C)(C)NC(=O)[C@@H](N)Cc1ccc(O)cc1)[C@@H](C)O)[C@@H](C)O)[C@@H](C)CC)C(=O)N[C@@H](C)C(=O)N[C@@H](CCC(N)=O)C(=O)NC(C)(C)C(=O)N[C@@H](CCCCNC(=O)COCCOCCNC(=O)COCCOCCNC(=O)CC[C@H](NC(=O)CCCCCCCCCOc1ccc(C(=O)O)cc1)C(=O)O)C(=O)N[C@@H](Cc1ccccc1)C(=O)N[C@H](C(=O)N[C@H](CCC(=O)O)C(=O)N[C@@](C)(Cc1ccc(O)cc1)C(=O)N[C@@H](CC(C)C)C(=O)N[C@H](C(=O)N[C@@H](CCCCNC(=O)COCCOCCNC(=O)COCCOCCNC(=O)CC[C@H](NC(=O)CCCCCCCCCOc1ccc(C(=O)O)cc1)C(=O)O)C(=O)NCC(=O)NCC(=O)N1CCC[C@H]1C(=O)N[C@@H](CO)C(=O)N[C@@H](CO)C(=O)NCC(=O)N[C@@H](C)C(=O)N1CCC[C@H]1C(=O)N1CCC[C@H]1C(=O)N1CCC[C@H]1C(=O)N[C@@H](CO)C(N)=O)[C@@H](C)CC)[C@@H](C)CC [Example 240] (H-Y[Aib]EGT[αMePhe(2-F)]TSDY[Aib]I[αMeL]LD[Orn]IAQ[Aib]K([AEEA-AEEA-γGlu-Decanoyl(10-(4-HOOC-PhO))])FI[dE][αMeY]LIK([AEEA-AEEA-γGlu-Decanoyl(10-(4-HOOC-PhO))])GGPSSGAPPPS-NH2) | > 9950 nM | > 9950 nM |  | 98.5% | 150 nM | 0.508 nM | 87.2% | 0.0237 nM
